In series [1] the target is T1, synaptic vesicle protein 2A (SV2A) (Homo sapiens, UniProt Q7L0J3).
T1 construct: from tissue; host or cells: brain of living human participants (in vivo PET)
As to the kind of experiment: Human brain PET imaging (SUV, SUVR, 1-TCM VT with arterial input function). The class given is in vivo. To be noted: for VT (SE %) from fitting of 1-TCM: human brain PET; for SUVR: 60-90 min, centrum semiovale reference; for time of peak brain uptake: P1 ([18F]SDM-4MP3) vs P3 ([18F]SynVesT-1). The source says: All human components of the study were approved according to the Research Ethics Board for Human Subjects at CAMH (CTA 125, REB 075/2019). All participants were recruited from the community and provided written informed consent. Participant inclusion criteria were self-report of good health. Exclusion criteria included any history of neurological or psychiatric disorder; cognitive impairment according to MoCA assessment (score less than 26); pregnancy and/or nursing; and disorders of coagulation, blood, or ongoing use of anticoagulant medication. Each participant's height, weight, current medications, and smoking status was recorded. Participants abstained from taking […] medications, including aspirin [13], for 24 hours prior to the PET exam (see Table 1).
Participants were scanned on a 5-ring GE Discovery MI PET/CT (GE Healthcare Technologies, Chicago, Illinois). Participants 1 and 2 (P1 and P2) were scanned with [^18F]SDM-4MP3 (the radiopharmaceutical synthesized from the ABX precursor), and [^18F]SynVesT-1 (synthesized from the Yale precursor) was used for PET imaging of participants 3 and 4 (P3 and P4). A thermoplastic facemask (Tru-Scan Imaging, Annapolis) was used to restrict head motion within the PET scanner bore. CT was used to acquire a scout scan, followed by a low-dose scan for attenuation correction. The radiopharmaceutical (target dose 185 MBq ± 10%, molar activity > 11 GBq/μmol) was delivered starting 30 s after the initiation of the emission scan, with a smooth bolus injection by hand (2-5 s) via intravenous line placed in the antecubital vein, followed by a 10 mL saline flush to clear residual activity from the line. Emission data was acquired for 120-125 min, allowing up to 5 min for a background frame sampled at 1 s intervals to determine the precise starting time of brain uptake, and used to establish the duration of the background frame inserted prior to dynamic frame reconstruction. Data acquired after the start of brain uptake was reconstructed into frames using FORE rebinning and filtered back-projection, using a Hanning filter at the Nyquist frequency to create a dynamic image set. Frame definitions were 30 s × 3, 60 s × 3, 120 s × 2, 300 s × 22 (total = 120 min). For use as a reference for motion correction, images were also reconstructed without attenuation correction using an iterative method with 4 subsets and 6 iterations. All reconstructions were performed using vendor algorithms on the GE DMI console. […] A spatial resolution of approximately 5.8 × 5.8 × 5.6 mm was achieved (measured in accordance with National Electrical Manufacturers Association NU 2-2007 standards). The mean injected activity was 192.7 MBq for [^18F]SDM-4MP3 and 184.3 MBq for [^18F]SynVesT-1 (Table 1).
(§1) The arterial line was placed into the radial artery by a qualified respiratory therapist. Up to 160 mL of arterial blood was collected via automated blood sampler (ABSS, Comecer PBS-101) and via manual samples for plasma metabolite correction. The ABSS protocol was started ~15 s after emission scan start, and pump speed was set to 300 mL/h, to reduce dispersion in ABSS lines during maximum rate of change of arterial activity concentration, at 1 s sampling period for 5 min and 2 s sampling period for 136 s. Pump speed was decreased to 180 mL/h at a sampling period of 5 s for the following 360 s and a sampling period of 10 s for 540 s, for a total sampling time of 22 min and 16 s. Manual samples were collected at baseline, 2.5, 7, 12, 15, 20, 30, 45, 60, 90, and 110 min relative to emission scan start into PTFE tubes, followed by a saline flush for all except 2.5- and 7-min samples to avoid discontinuities in arterial data during peak uptake.
(1) Image Registration and Region of Interest. […]

Series [2] addresses T2, synaptic vesicle protein 2A (SV2A) (Rattus norvegicus, UniProt Q02563).
T2 construct: from tissue; host or cells: brain of living Sprague-Dawley rats (in vivo PET)
Put plainly: Preclinical PET imaging in rats (whole-brain uptake). To be noted: for initial peak uptake in the rodent brain: rat whole-brain time-activity curve. In kind it is in vivo, Sprague-Dawley rats. Here is the method:
Preclinical PET imaging studies were approved by the Animal Care Committee at CAMH (Animal Use Protocol #838). Six adult Sprague-Dawley rats were scanned for 120 min on either a Mediso nanoScan PET/MR 3 T or PET/CT scanner (Budapest, Hungary), and the images were analyzed using VivoQuant® software (version 4.1, Invicro LLC, Needham, MA, USA), as described previously. Five rats (3 M/2F, 528 ± 46 g) were used for the baseline [^18F]SynVesT-1 scans (injected dose: 13.3 ± 3.2 MBq; molar activity: 157 ± 64 GBq/μmol; mass injected: 0.22 ± 0.08 nmol/kg), with two of the male rats also scanned after injection of the blocking drug levetiracetam (cat#L1784, LKT Laboratories Inc, St Paul, MN, USA) at 30 mg/kg (i.v., 15 min before the tracer; injected dose: 10.2 ± 0.1 MBq; molar activity: 78 ± 15 GBq/μmol; injected mass: 0.24 ± 0.04 nmol/kg). One female rat (273 g) was used for the 120 min scan with [^18F]SDM-4MP3 (injected dose: 13.0 MBq; molar activity: 125.5 GBq/μmol; injected mass: 0.38 nmol/kg). Acquired list mode data were sorted into thirty-nine 3-dimensional (3D) (3 × 5 s, 3 × 15 s, 3 × 20 s, 7 × 60 s, 17 × 180 s, and 6 × 600 s) true sinograms (ring difference 84) and reconstructed with a 2D filtered back-projection algorithm with corrections for detector geometry, efficiencies, attenuation, and scatter and dead time and were decay-corrected to the start of acquisition. Static images of the complete emission acquisition (0-120 min) were reconstructed with the manufacturer's proprietary iterative 3D algorithm (6 subsets and 4 iterations). SUVs were calculated by normalizing regional radioactivity for injected radioactivity and body weight.

Series [3] can be described thus: Arterial plasma radiometabolite analysis (column-switching HPLC) in human participants. To be noted: human arterial plasma parent fraction, compared with [18F]SynVesT-1. In kind it is in vivo. Here is the method:
as §1, with “Manual samples were collected at baseline, 2.5, 7, 12, 15, 20, 30, 45, 60, 90, and 110 min relative to emission scan start into PTFE tubes, followed by a saline flush for all except 2.5- and 7-min samples to avoid discontinuities in arterial data during peak uptake.” left out
Baseline whole blood samples were centrifuged at 3100 RPM at room temperature for 5 min to extract plasma. […] Each subsequent manual sample was centrifuged at 3900 rpm at 4°C for 5 min, and 0.3 mL of whole blood and 0.3 mL of plasma were extracted and measured on a gamma counter (Wizard 2480, Perkin Elmer, Turku, Finland) to quantify activity concentration.
(1) Column-Switching HPLC. […] Samples were initially analyzed in capture mode with the capture solvent flow rate of 1.8 mL/min for 4 min before switching to analysis mode with the analysis solvent running at 1.8 mL/min for an additional 12 min. […]

The next series has as its target SV2A. Further details: method as in PMID 34722967, PMID 24446373. To be noted: affinity to SV2A, in vitro binding; cited from earlier work.
Where [4] appears, read: human brain time-activity curves.

The structures appear in SMILES notation.

T1 sequence (Q7L0J3 whole entry): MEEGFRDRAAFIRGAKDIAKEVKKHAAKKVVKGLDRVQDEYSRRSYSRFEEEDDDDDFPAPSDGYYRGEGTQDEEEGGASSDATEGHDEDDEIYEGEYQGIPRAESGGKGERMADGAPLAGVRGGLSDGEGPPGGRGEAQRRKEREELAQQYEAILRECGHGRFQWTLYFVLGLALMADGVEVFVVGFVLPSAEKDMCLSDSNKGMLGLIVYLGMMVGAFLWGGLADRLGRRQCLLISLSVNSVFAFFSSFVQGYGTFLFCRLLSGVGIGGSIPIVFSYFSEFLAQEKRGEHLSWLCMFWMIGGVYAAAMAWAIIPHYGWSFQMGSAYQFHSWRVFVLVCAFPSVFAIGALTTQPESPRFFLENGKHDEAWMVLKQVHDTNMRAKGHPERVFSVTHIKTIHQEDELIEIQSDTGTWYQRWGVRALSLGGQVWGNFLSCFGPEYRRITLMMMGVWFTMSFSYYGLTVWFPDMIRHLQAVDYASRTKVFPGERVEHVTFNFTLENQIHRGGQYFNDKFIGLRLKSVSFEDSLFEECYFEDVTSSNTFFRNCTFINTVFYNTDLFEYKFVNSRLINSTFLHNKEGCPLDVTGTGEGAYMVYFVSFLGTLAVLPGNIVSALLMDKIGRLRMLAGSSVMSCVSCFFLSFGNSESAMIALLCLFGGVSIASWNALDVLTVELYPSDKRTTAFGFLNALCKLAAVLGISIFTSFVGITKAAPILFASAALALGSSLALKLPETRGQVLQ
T2 sequence (Q02563 whole entry): as the sequence (Q7L0J3 whole entry) above, with D53E, S62A, T71A, E144D, A154T, G440S, S482A, I572V, M634L counted along it

As for `Cc1cnccc1CN1C[C@@H](c2cc(F)cc([18F])c2)CC1=O` [[^18F]SynVesT-1, reference compound], the “VT (SE %) from fitting of 1-TCM” value in series [1] (Centrum semiovale, participant P3) is 2.9 (1.4%); in series [1] (Centrum semiovale, participant P4), 3.5 (7.7%); in series [1] (Cerebellum, participant P3) it was 13.1 (0.7%); in series [1] (Cerebellum, participant P4), 16.3 (4.9%); in series [1] (Frontal cortex, participant P3), 15.4 (0.4%); in series [1] (Frontal cortex, participant P4), 18.3 (5.1%). For the same molecule, the “VT (SE %) from fitting of 1-TCM” value is reported as 14.9 (0.6%) in series [1] (Hippocampus, participant P3); 17.0 (6.2%) in series [1] (Hippocampus, participant P4); 16.1 (0.5%) in series [1] (Putamen, participant P3); 22.23 (4.7%) in series [1] (Putamen, participant P4). Moreover, the SUVR entry in series [1] (cortical regions, human) is “greater than 7”. For the same molecule, the “time of peak brain uptake” value in series [1] (setting [4]) came to 20 min. Besides, in series [2] (baseline), the “initial peak uptake in the rodent brain” value was determined as 7.6 ± 0.7 SUV. The “brain uptake SUVs in static image” value in series [2] (rat, 0-120 min static image, baseline) was approximately 8 SUV.

As to `Cc1ccncc1CN1C[C@@H](c2cc(F)cc([18F])c2)CC1=O` [[^18F]SDM-4MP3], the “VT (SE %) from fitting of 1-TCM” value was 1.6 (1.8%) in series [1] (Centrum semiovale, participant P1); 1.7 (2.0%) in series [1] (Centrum semiovale, participant P2); 1.6 (1.4%) in series [1] (Cerebellum, participant P1); 1.8 (1.6%) in series [1] (Frontal cortex, participant P1); 1.9 (3.4%) in series [1] (Frontal cortex, participant P2); 1.8 (1.4%) in series [1] (Hippocampus, participant P1). Further, the “VT (SE %) from fitting of 1-TCM” value in series [1] (Hippocampus, participant P2) was 1.8 (3.4%); in series [1] (Putamen, participant P1), 2.0 (1.3%); in series [1] (Putamen, participant P2), 2.1 (3.4%). The “initial brain penetration (SUV)” value in series [1] (human brain time-activity curves, P1) is given as ~ 7 SUV. The clearance from brain entry in series [1] (human brain time-activity curves, in contrast to [18F]SynVesT-1) is on record as “rapid clearance from brain”. Further, the “time of peak brain uptake” value in series [1] (setting [4]) is reported as 2.5 min. For the same molecule, the “factor by which VT estimates were lower than expected” value in series [1] (human, one-tissue compartment model, vs expected for [18F]SynVesT-1) is more than 10. Also, the SUVR result in series [1] (throughout the brain, human) is reported as “under 2”. Besides, in series [3], the rate of radiometabolism entry is “slightly slower”. Further, the “initial peak uptake in the rodent brain” value in series [2] (baseline) came out at 3.2 SUV. For the same molecule, in series [2] (rat, barely above tissues outside of the brain), the “brain uptake in 0-120 min static image” value was “very limited brain uptake”. Besides, the “whole-brain TAC clearance” value in series [2] (rat, vs. [18F]SynVesT-1) is given as “much faster clearance”. The “brain uptake relative to blocked [18F]SynVesT-1 scans” value in series [2] (rat, comparator scans after levetiracetam 30 mg/kg i.v. 15 min before tracer) is “lower than [^18F]SynVesT-1 scans performed under preblocking conditions with levetiracetam”.

Turning to `Cc1cnccc1CN1C[C@@H](c2cc(F)cc(F)c2)CC1=O` [SynVesT-1], the Ki on SV2A is 3.1 nM.

In the case of `Cc1ccncc1CN1CC(c2cc(F)cc(F)c2)CC1=O` (centres unmarked) [SDM-4MP3], the Ki on SV2A is 291 nM.
